Laboratory results taken from ChEMBL document CHEMBL1201862, “PubChem BioAssay data set” (2004).
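48-hour exposure; five concentrations; linearly interpolated endpoints. GI50: concentration for 50% inhibition of growth.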 The source made the active and inactive calls. Rule as the data show it: active = GI50 up to about 1.1 µM and inactive = higher.

How the values were obtained:
Experiment in all cases: NCI-60 cell line screen, 48 h
OVCAR-3 = test system: OVCAR-3
ACHN = test system: ACHN
BT-549 = test system: BT-549
COLO 205 = test system: COLO 205
HOP-62 = test system: HOP-62
SK-MEL-28 = test system: SK-MEL-28
T47D = test system: T47D
HOP-92 = test system: HOP-92
SF-295 = test system: SF-295
OVCAR-8 = test system: OVCAR-8
Malme-3M = test system: Malme-3M
MDA-N = test system: MDA-N
NCI-H522 = test system: NCI-H522
SK-MEL-5 = test system: SK-MEL-5
NCI-H226 = test system: NCI-H226
MCF7 = test system: MCF7
SF-539 = test system: SF-539

Measured: GI50

O=S(=O)(O)c1ccc2cc(/N=N\c3cc(S(=O)(=O)O)c4cccnc4c3O)ccc2c1
inactive: OVCAR-3 > 100 µM | ACHN > 100 µM | BT-549 > 100 µM | COLO 205 > 100 µM | HOP-62 > 100 µM | SK-MEL-28 > 100 µM | T47D > 100 µM | HOP-92 > 100 µM | SF-295 > 100 µM | OVCAR-8 > 100 µM | Malme-3M > 100 µM | MDA-N > 100 µM | NCI-H522 > 100 µM | SK-MEL-5 > 100 µM | NCI-H226 > 100 µM | MCF7 > 100 µM | SF-539 > 100 µM

CN(C)c1nc(-c2ccccc2)c(C(=O)c2c[nH]c3ccccc23)s1
inactive: OVCAR-3 5.04 µM | ACHN 30.5 µM | BT-549 > 100 µM | COLO 205 4.78 µM | HOP-62 15.1 µM | SK-MEL-28 > 35.2 µM | T47D > 43.7 µM | SF-295 3.92 µM | OVCAR-8 9.62 µM | Malme-3M 11.2 µM | MDA-N 1.93 µM | NCI-H522 2.76 µM | SK-MEL-5 8.57 µM | NCI-H226 > 25.7 µM | MCF7 4.48 µM | SF-539 10.7 µM

CCC(=O)OCN(C)c1nc(N(C)COC(=O)CC)nc(N(C)COC(=O)CC)n1
inactive: OVCAR-3 > 100 µM | BT-549 32.9 µM | COLO 205 24.3 µM | HOP-62 > 100 µM | SK-MEL-28 64.9 µM | T47D 35.3 µM | HOP-92 89.5 µM | SF-295 > 100 µM | OVCAR-8 69.3 µM | Malme-3M 32.6 µM | MDA-N 33.3 µM | SK-MEL-5 22.9 µM | NCI-H226 85.5 µM | MCF7 42 µM

COc1cccc(-c2nc(-c3cnccn3)n(Cc3ccccc3)n2)c1
inactive: OVCAR-3 > 100 µM | BT-549 > 100 µM | COLO 205 > 100 µM | HOP-62 44.4 µM | SK-MEL-28 86.1 µM | T47D > 100 µM | HOP-92 26.5 µM | SF-295 54.3 µM | OVCAR-8 > 100 µM | MDA-N > 100 µM | NCI-H522 52.1 µM | SK-MEL-5 89.3 µM | MCF7 > 100 µM | SF-539 85.1 µM

COc1cc(C2C3=C(N=C4SC(C(C)=O)=C(C)N42)c2ccccc2CC3)cc(OC)c1OC (stereo unspecified)
inactive: OVCAR-3 > 100 µM | ACHN > 100 µM | BT-549 > 100 µM | COLO 205 54.3 µM | HOP-62 97.9 µM | SK-MEL-28 > 100 µM | T47D 11.4 µM | HOP-92 > 100 µM | SF-295 68.7 µM | OVCAR-8 > 100 µM | MDA-N 28.7 µM | SK-MEL-5 41.8 µM | NCI-H226 > 100 µM | MCF7 75.5 µM | SF-539 > 100 µM

CN(C)/N=N/c1ccc(NC=O)cc1
inactive: OVCAR-3 > 100 µM | ACHN > 100 µM | BT-549 > 100 µM | COLO 205 > 100 µM | HOP-62 > 100 µM | SK-MEL-28 > 100 µM | T47D 39.6 µM | HOP-92 > 100 µM | SF-295 > 100 µM | OVCAR-8 > 100 µM | MDA-N > 100 µM | SK-MEL-5 > 100 µM | MCF7 > 100 µM | SF-539 > 100 µM

O=C1Nc2ccccc2C(=O)/C1=C/NC(=S)NCCc1ccccc1
inactive: OVCAR-3 > 100 µM | ACHN > 100 µM | BT-549 > 100 µM | COLO 205 > 100 µM | HOP-62 > 100 µM | SK-MEL-28 > 100 µM | T47D > 100 µM | HOP-92 > 100 µM | SF-295 > 100 µM | OVCAR-8 > 100 µM | MDA-N > 100 µM | SK-MEL-5 > 100 µM | NCI-H226 > 100 µM | MCF7 > 100 µM | SF-539 > 100 µM

CCC1(O)CC(O)c2c(O)c3c(c(O)c2C1C(=O)OC)C(=O)c1cccc(O)c1C3=O (stereo unspecified)
inactive: OVCAR-3 2.05 µM | ACHN 3 µM | BT-549 6.85 µM | COLO 205 2.21 µM | HOP-62 3.22 µM | SK-MEL-28 11.4 µM | T47D 3.77 µM | HOP-92 9.31 µM | SF-295 2.66 µM | OVCAR-8 1.63 µM | Malme-3M 1.94 µM | MDA-N 5.36 µM | NCI-H522 1.75 µM | SK-MEL-5 1.84 µM | NCI-H226 3.4 µM | MCF7 3.28 µM | SF-539 3.85 µM

Nc1nc(Cl)cc(NCC2(CCO)CCC2)n1
inactive: OVCAR-3 > 100 µM | ACHN > 100 µM | BT-549 32.7 µM | HOP-62 > 100 µM | SK-MEL-28 > 100 µM | T47D 22.2 µM | HOP-92 > 100 µM | SF-295 > 10 µM | OVCAR-8 > 100 µM | Malme-3M > 100 µM | MDA-N > 100 µM | NCI-H522 > 100 µM | SK-MEL-5 > 100 µM | NCI-H226 > 100 µM | MCF7 > 100 µM | SF-539 > 100 µM

Cc1c(S(=O)(=O)c2ccccc2)c(N)n(CCN(C)C)c1C
inactive: OVCAR-3 > 100 µM | ACHN > 100 µM | BT-549 36.1 µM | COLO 205 > 100 µM | SK-MEL-28 > 100 µM | T47D > 100 µM | HOP-92 > 100 µM | SF-295 > 100 µM | OVCAR-8 > 100 µM | Malme-3M > 100 µM | MDA-N > 100 µM | NCI-H522 > 100 µM | SK-MEL-5 > 100 µM | NCI-H226 > 100 µM | MCF7 > 100 µM | SF-539 28.9 µM

O=C1C(N2CCNCC2)=C(Cl)C(=O)c2ncccc21
inactive: OVCAR-3 > 10 µM | ACHN > 10 µM | BT-549 > 10 µM | COLO 205 > 10 µM | HOP-62 > 10 µM | SK-MEL-28 > 10 µM | T47D > 10 µM | HOP-92 3.25 µM | SF-295 > 10 µM | OVCAR-8 6.19 µM | Malme-3M > 10 µM | MDA-N 4.47 µM | SK-MEL-5 5.79 µM | NCI-H226 > 10 µM | MCF7 3.02 µM | SF-539 > 10 µM

COc1cc(C(=O)C2CC3(CCC2(O)c2cc(OC)c(OC)c(OC)c2)CC(=O)Nc2ccccc2C3=O)cc(OC)c1OC (stereo unspecified)
inactive: OVCAR-3 > 100 µM | BT-549 > 100 µM | COLO 205 26.5 µM | HOP-62 > 100 µM | SK-MEL-28 > 100 µM | T47D 36.6 µM | HOP-92 40.4 µM | SF-295 98.2 µM | OVCAR-8 > 100 µM | Malme-3M > 100 µM | MDA-N > 100 µM | SK-MEL-5 21.3 µM | NCI-H226 > 100 µM | MCF7 60.4 µM | SF-539 > 100 µM

C=CC1=C(C)c2cc3[nH]c(c4c5nc(cc6[nH]c(cc1n2)c(C)c6CC)C=C5C(=O)C4C(=O)OC)C(CCC(=O)OC/C=C(\C)CCCC(C)CCCC(C)CCCC(C)C)C3C.C=CC1=C(C)c2cc3[nH]c(c4c5nc(cc6[nH]c(cc1n2)c(C=O)c6CC)C=C5C(=O)C4C(=O)OC)C(CCC(=O)OC/C=C(\C)CCCC(C)CCCC(C)CCCC(C)C)C3C (stereo unspecified)
inactive: OVCAR-3 > 100 µM | ACHN > 100 µM | BT-549 76.4 µM | COLO 205 43.9 µM | HOP-62 > 100 µM | SK-MEL-28 > 100 µM | T47D > 100 µM | HOP-92 > 100 µM | SF-295 > 100 µM | OVCAR-8 43 µM | MDA-N > 100 µM | NCI-H522 22.6 µM | SK-MEL-5 > 100 µM | NCI-H226 > 100 µM | MCF7 > 100 µM | SF-539 > 100 µM

CC(C)=CCc1c(O)c(CC2=C(O)C(CC=C(C)C)(C(=O)C(C)C)C(O)=C(C)C2=O)c(O)c(C(=O)C(C)C)c1O (stereo unspecified)
inactive: OVCAR-3 12.2 µM | ACHN 11.8 µM | BT-549 11.6 µM | COLO 205 13 µM | HOP-62 11.3 µM | SK-MEL-28 13.2 µM | T47D 8.45 µM | HOP-92 5.07 µM | SF-295 9.33 µM | OVCAR-8 12 µM | Malme-3M 8.02 µM | MDA-N 14.3 µM | NCI-H522 6.55 µM | SK-MEL-5 7.87 µM | NCI-H226 7.93 µM | MCF7 11.7 µM | SF-539 13.8 µM

CN1c2ccccc2SC2C(c3ccccc3)=NOC21 (stereo unspecified)
inactive: OVCAR-3 56.1 µM | ACHN 52.6 µM | BT-549 26.6 µM | COLO 205 22.7 µM | HOP-62 33.8 µM | SK-MEL-28 31.1 µM | T47D 21.5 µM | SF-295 30.7 µM | OVCAR-8 49.3 µM | Malme-3M 8.39 µM | MDA-N 22.9 µM | NCI-H522 30.1 µM | SK-MEL-5 > 10 µM | NCI-H226 47.6 µM | MCF7 42.7 µM | SF-539 27.7 µM

NCC(=O)N[C@H]1c2ccsc2/C(=N/O)[C@H]1O
inactive: OVCAR-3 > 100 µM | BT-549 > 100 µM | COLO 205 > 100 µM | HOP-62 > 100 µM | SK-MEL-28 > 100 µM | T47D > 100 µM | HOP-92 > 100 µM | SF-295 > 100 µM | OVCAR-8 > 100 µM | Malme-3M > 100 µM | MDA-N > 100 µM | SK-MEL-5 > 100 µM | NCI-H226 > 100 µM | MCF7 > 100 µM | SF-539 > 100 µM

CC(=O)[C@H]1CC[C@@H]2[C@]1(C)CC=C1[C@]23C=C[C@]2(C[C@@H](O)CC[C@]12C)C(C(=O)O)C3C(=O)O (stereo partly specified)
inactive: OVCAR-3 > 100 µM | ACHN > 100 µM | BT-549 > 100 µM | COLO 205 > 100 µM | HOP-62 > 100 µM | SK-MEL-28 > 100 µM | T47D > 100 µM | HOP-92 > 100 µM | SF-295 > 100 µM | OVCAR-8 > 100 µM | Malme-3M > 100 µM | MDA-N > 100 µM | NCI-H522 > 100 µM | SK-MEL-5 > 100 µM | NCI-H226 > 100 µM | MCF7 > 100 µM | SF-539 > 100 µM
